Reference: PubChem BioAssay AID1963847 (Molecular Pharmacology Branch, DTP, NCI, 2024)

System: 415267-285-R-J2-PDC complex spheroid viability
Assay: Anticancer human tumor 415267-285-R-J2-PDC patient-derived breast carcinoma cell line growth inhibition [POLQ]
Details: for IC50: curve of first compound; for viability, T/C: stronger effect = lower value
Outline: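 Growth inhibition in 3D: complex spheroids (tumor PDC, HUVEC, MSC) treated with POLQ inhibitor combinations; where Cmax unknown, highest tested concentration 10 microM, except SN-38 at 1 microM.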

[1] = second compound 0.0316 µM, first compound 0.0316 µM
[2] = second compound 0.0316 µM, first compound 0.1 µM
[3] = second compound 0.0316 µM, first compound 0.316 µM
[4] = second compound 0.0316 µM, first compound 1 µM
[5] = second compound 0.0316 µM, first compound 3.16 µM
[6] = second compound 0.0316 µM, first compound 10 µM
[7] = second compound 0.1 µM, first compound 0.0316 µM
[8] = second compound 0.1 µM, first compound 0.1 µM
[9] = second compound 0.1 µM, first compound 0.316 µM
[10] = second compound 0.1 µM, first compound 1 µM
[11] = second compound 0.1 µM, first compound 3.16 µM
[12] = second compound 0.1 µM, first compound 10 µM
[13] = second compound 0.316 µM, first compound 0.0316 µM
[14] = second compound 0.316 µM, first compound 0.1 µM
[15] = second compound 0.316 µM, first compound 0.316 µM
[16] = second compound 0.316 µM, first compound 1 µM
[17] = second compound 0.316 µM, first compound 3.16 µM
[18] = second compound 0.316 µM, first compound 10 µM
[19] = second compound 1 µM, first compound 0.0316 µM
[20] = second compound 1 µM, first compound 0.1 µM
[21] = second compound 1 µM, first compound 0.316 µM
[22] = second compound 1 µM, first compound 1 µM
[23] = second compound 1 µM, first compound 3.16 µM
[24] = second compound 1 µM, first compound 10 µM
[25] = second compound 3.16 µM, first compound 0.0316 µM
[26] = second compound 3.16 µM, first compound 0.1 µM
[27] = second compound 3.16 µM, first compound 0.316 µM
[28] = second compound 3.16 µM, first compound 1 µM
[29] = second compound 3.16 µM, first compound 3.16 µM
[30] = second compound 3.16 µM, first compound 10 µM
[31] = second compound 10 µM, first compound 0.0316 µM
[32] = second compound 10 µM, first compound 0.1 µM
[33] = second compound 10 µM, first compound 0.316 µM
[34] = second compound 10 µM, first compound 1 µM
[35] = second compound 10 µM, first compound 3.16 µM
[36] = second compound 10 µM, first compound 10 µM
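Note: spheroids exposed to compounds for one week before readout.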
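Throughout, for viability, T/C: luminescence used as stand-in measure of viable cells; 100% = DMSO vehicle control viability.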

CCc1cc2c(N3CCc4c(cc(Cn5ccnc5)cc4-c4cn(C)nc4C(F)(F)F)C3=O)cc(C)nc2c(OC)n1 + Cc1cccc(N(C)C(=O)C2C(O)CCN2c2nc(C)cc(C(F)(F)F)c2C#N)c1
IC50 (second compound 0.0316 µM): > 10 µM
IC50 (second compound 0.1 µM): > 10 µM
IC50 (second compound 0.316 µM): > 10 µM
IC50 (second compound 1 µM): > 10 µM
IC50 (second compound 3.16 µM): > 10 µM
IC50 (second compound 10 µM): > 10 µM
viability, T/C [1]: 92.6%
viability, T/C [2]: 98.2%
viability, T/C [3]: 82%
viability, T/C [4]: 91.5%
viability, T/C [5]: 90%
viability, T/C [6]: 77.1%
viability, T/C [7]: 93%
viability, T/C [8]: 89.3%
viability, T/C [9]: 83%
viability, T/C [10]: 89.8%
viability, T/C [11]: 81%
viability, T/C [12]: 71.7%
viability, T/C [13]: 97.7%
viability, T/C [14]: 91.4%
viability, T/C [15]: 95.1%
viability, T/C [16]: 89.7%
viability, T/C [17]: 85.1%
viability, T/C [18]: 80.2%
viability, T/C [19]: 102%
viability, T/C [20]: 81.4%
viability, T/C [21]: 84.5%
viability, T/C [22]: 91.7%
viability, T/C [23]: 88.7%
viability, T/C [24]: 74.7%
viability, T/C [25]: 92.3%
viability, T/C [26]: 99.7%
viability, T/C [27]: 90.7%
viability, T/C [28]: 89.8%
viability, T/C [29]: 84.8%
viability, T/C [30]: 87.9%
viability, T/C [31]: 90.3%
viability, T/C [32]: 95.7%
viability, T/C [33]: 89.2%
viability, T/C [34]: 91.7%
viability, T/C [35]: 81.2%
viability, T/C [36]: 81.7%

CC(C)n1c(=O)n(C)c2cnc3cc(F)c(-c4ccc(OCCCN5CCCCC5)nc4)cc3c21 + Nc1ccc(C#CCN(C(=O)Cc2ncc(C(F)(F)F)cc2C(F)(F)F)c2ccc(F)cc2)nn1
IC50 (second compound 0.0316 µM): > 10 µM
IC50 (second compound 0.1 µM): > 10 µM
IC50 (second compound 0.316 µM): > 10 µM
IC50 (second compound 1 µM): > 10 µM
IC50 (second compound 3.16 µM): > 10 µM
IC50 (second compound 10 µM): > 10 µM
viability, T/C [1]: 102%
viability, T/C [2]: 107%
viability, T/C [3]: 105%
viability, T/C [4]: 122%
viability, T/C [5]: 104%
viability, T/C [6]: 103%
viability, T/C [7]: 103%
viability, T/C [8]: 105%
viability, T/C [9]: 108%
viability, T/C [10]: 96.1%
viability, T/C [11]: 101%
viability, T/C [12]: 97.6%
viability, T/C [13]: 102%
viability, T/C [14]: 113%
viability, T/C [15]: 101%
viability, T/C [16]: 105%
viability, T/C [17]: 103%
viability, T/C [18]: 108%
viability, T/C [19]: 102%
viability, T/C [20]: 105%
viability, T/C [21]: 96.4%
viability, T/C [22]: 101%
viability, T/C [23]: 111%
viability, T/C [24]: 108%
viability, T/C [25]: 101%
viability, T/C [26]: 107%
viability, T/C [27]: 110%
viability, T/C [28]: 111%
viability, T/C [29]: 108%
viability, T/C [30]: 115%
viability, T/C [31]: 108%
viability, T/C [32]: 109%
viability, T/C [33]: 117%
viability, T/C [34]: 126%
viability, T/C [35]: 106%
viability, T/C [36]: 117%
